Measurements published in patent US5270321A, “Use of dicentrine and its derivatives for the treatment of arrhythmia” (priority 1992, dated 1993).
Read-outs that look alike come from different tables or passages of the source.

Columns and labels:
α1 -adrenoceptor = target: T1, α1 -adrenoceptor (Rattus norvegicus, UniProt P23944); experiment: α1-adrenoceptor antagonism, concentration-response (Schild) analysis of norepinephrine- and phenylephrine-induced contraction of rat thoracic aortae; type: cell-based; details: for Kb: means ± S.E.M.
T1 construct: contraction of rat thoracic aortae; from tissue; host or cells: rat thoracic aorta
T1 sequence (P23944 1-561): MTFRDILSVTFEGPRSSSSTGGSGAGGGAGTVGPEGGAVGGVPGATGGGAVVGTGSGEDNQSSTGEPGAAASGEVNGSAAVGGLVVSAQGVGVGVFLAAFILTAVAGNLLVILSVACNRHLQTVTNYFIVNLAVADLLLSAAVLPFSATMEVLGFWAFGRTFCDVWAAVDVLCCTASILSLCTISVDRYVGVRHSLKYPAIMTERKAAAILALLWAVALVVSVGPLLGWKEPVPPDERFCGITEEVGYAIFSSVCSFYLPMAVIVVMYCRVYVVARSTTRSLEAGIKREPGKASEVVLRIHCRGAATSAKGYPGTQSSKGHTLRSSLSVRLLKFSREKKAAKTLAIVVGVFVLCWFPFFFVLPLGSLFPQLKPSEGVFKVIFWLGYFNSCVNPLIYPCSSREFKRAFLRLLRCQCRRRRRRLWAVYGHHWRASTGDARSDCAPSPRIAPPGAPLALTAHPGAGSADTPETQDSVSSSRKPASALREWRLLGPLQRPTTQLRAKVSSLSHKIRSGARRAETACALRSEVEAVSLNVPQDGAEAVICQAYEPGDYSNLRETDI

rat ventricular cells = experiment: Action potential in rat ventricular cells; type: cell-based; details: for AP amplitude / APD50 (action potential duration measured at 50% repolarization from the peak amplitude) / Tp (time to peak measured from the start of depolarization to the peak of the action potential): 3 μM, Ca^++ -Tyrode, 3 to 5 min exposure, means ± S.E.M.
Text: (§1) In rat ventricular cells, the effects of dicentrine on action potential and membrane current were studied. […] However, calcium current was less affected.
The effects of dicentrine and quinidine on action potential were compared and studied in rat ventricular cells. […] In addition to the prolongation of APD50, a depression of initial upstroke amplitude from 138.3±2.6 mV to 125.5±4.5 mV and prolongation of the time to peak amplitude from 5.0±0.5 msec to 10.0±1.9 msec were observed.

[1] = tested on: pentobarbital-anesthetized rats; experiment: Systemic hemodynamic parameters of anesthetized rats; type: in vivo, rat
rat thoracic aorta = experiment: Norepinephrine-induced contraction of thoracic aorta; type: cell-based
Text: They inhibited the aggregation of washed rabbit platelets induced by ADP, collagen, arachidonic acid and platelet-activating factor (PAF). […] Furthermore, the action potential of rat ventricular cells was prolonged by these fractions. After rechromatograph on a silica gel column with n-hexane-ethylacetate (2:1), four potent compounds, dicentrine, N-methylnandigerine, N-methylovigenine and dicentrinone were obtained.
The dried, ground root material (500 g) was extracted with 95% ethanol, and the extract was concentrated in vacua and fractionated into ethanol- and ethylacetate-soluble fractions. The ethylacetate-soluble fraction was then applied to a column of silica gel and eight fractions were obtained.
Concentration: arachidonic acid (100 μM), collagen (10 μg/ml),
norepinephrine (NE, 3 μM), each fraction (100 μg/ml).

[2] = tested on: conscious spontaneously hypertensive (SH) rats; experiment: Mean arterial pressure in conscious spontaneously hypertensive (SH) rats; type: in vivo, rat
[3] = tested on: fast sodium inward current; experiment: Fast sodium inward current in rat ventricular cells; type: cell-based
Text: as §1

[4] = tested on: transient outward and steady state outward current; experiment: Voltage clamp: transient outward and steady state outward current in rat ventricular cells; type: cell-based
Text: as §1

guinea-pig trachea = experiment: Contraction and relaxation of guinea-pig trachea; type: cell-based
calcium current = experiment: Voltage clamp: calcium current in rat ventricular cells; type: cell-based
Text: as §1

isolated thoracic aorta = experiment: Contractile force of isolated thoracic aorta of rats fed with high cholesterol and high fat diet; type: in vivo, rat
aorta = experiment: Aortic contraction induced by U-46619, angiotensin II, high potassium or carbachol; type: cell-based, rat
serum triglyceride = experiment: Serum triglyceride level in rats fed with cholesterol-triglyceride-rich diet; type: in vivo, rat
normotensive (NT) rats = experiment: Mean arterial pressure in conscious normotensive (NT) rats; type: in vivo, rat
[5] = pentobarbital-anesthetized rats
[6] = concentration-response curve analysis

Cc1ccc(N(CC2=NCCN2)c2cccc(O)c2)cc1 [Phentolamine, phentolamine, reference compound]
slope (α1 -adrenoceptor; Schild slope, agonist phenylephrine, 95% confidence limits in parentheses): 0.72 (0.70-1.20) | r (α1 -adrenoceptor; agonist phenylephrine): 0.99

C=C[C@H]1C[N@@]2CC[C@H]1C[C@@H]2[C@@H](O)c1ccnc2ccc(OC)cc12 [Quinidine, quinidine, reference compound]
AP amplitude (rat ventricular cells): 121.2 ± 2.3 mV | APD50 (action potential duration measured at 50% repolarization from the peak amplitude) (rat ventricular cells): 276.0 ± 18.6 ms | Tp (time to peak measured from the start of depolarization to the peak of the action potential) (rat ventricular cells): 10.8 ± 2.4 ms

COc1cc2nc(N3CCN(C(=O)c4ccco4)CC3)nc(N)c2cc1OC [Prazosin, prazosin, reference compound]
cardiac output (in words) [1, 5]: little or no change in cardiac output (CO) | mean arterial pressure (in words) [1, 5]: a decrease in mean arterial pressure (MAP) | total peripheral resistance (in words) [1, 5]: a reduction in total peripheral resistance by increasing blood flow | r (α1 -adrenoceptor; agonist phenylephrine): 0.99

COc1cc2c(cc1OC)-c1c3c(cc4c1[C@H](C2)N(C)CC4)OCO3 [Dicentrine, dicentrine]
vasorelaxant potency (in words) (rat thoracic aorta): the most potent vasorelaxant in rat thoracic aorta | mean arterial pressure (in words) ([2]; compared with NT rats): dose-related decreases in mean arterial pressure which were of greater magnitude in SH than in NT rats | persistence of hypotensive effect ([2]; oral administration): over 15 hr | hypotensive activity after α1 -adrenoceptor blockade (in words) ([1]; after α1 -adrenoceptor blockade): completely abolished | mean arterial blood pressure (in words) ([1]; anesthetized rats, i.v. bolus 0.1-1.0 mg/kg): dose-related reduction in mean arterial blood pressure | persistence of reduction in mean arterial blood pressure ([1]; anesthetized rats, i.v. bolus 0.1-1.0 mg/kg, throughout observation period): ≥ 2 h | cardiac output (in words) [1, 5]: little or no change in cardiac output (CO) | mean arterial pressure (in words) [1, 5]: a decrease in mean arterial pressure (MAP) | total peripheral resistance (in words) [1, 5]: a reduction in total peripheral resistance by increasing blood flow | heart rate, stroke volume (in words) ([1]; pentobarbital-anesthetized rats, in comparison with prazosin): no change in heart rate (HR), or stroke volume (SV) | fast sodium inward current (in words) [3]: inhibition of fast sodium inward current | r (α1 -adrenoceptor; agonist norepinephrine): 0.99 | Kb (α1 -adrenoceptor; agonist norepinephrine, read-out: pA2 (converted)): 6.46 nM | r (α1 -adrenoceptor; agonist phenylephrine): 0.99 | potency compared with phentolamine or yohimbine (in words) (α1 -adrenoceptor; [6]): much more potent than phentolamine or yohimbine | potency compared with prazosin (in words) (α1 -adrenoceptor; [6]): less potent than prazosin | antagonism in denuded aorta (in words) (α1 -adrenoceptor; denuded aorta): These effects still persisted in denuded aorta | Kb (α1 -adrenoceptor; pA2, agonist phenylephrine): 0.977 nM | antagonism of norepinephrine- or phenylephrine-induced vasoconstriction (in words) (α1 -adrenoceptor; rat aorta): competitive antagonism | transient outward and steady state outward current (in words) [4]: significant inhibition of both transient outward and steady state outward current | contraction of guinea-pig trachea caused by histamine or carbachol (in words) (guinea-pig trachea; histamine or carbachol): slightly inhibited | B-adrenoceptor relaxation to isoprenaline in trachea (in words) (guinea-pig trachea; isoprenaline): not affected | AP amplitude (rat ventricular cells): 125.5 ± 4.5 mV | APD50 (action potential duration measured at 50% repolarization from the peak amplitude) (rat ventricular cells): 201.9 ± 28.7 ms | Tp (time to peak measured from the start of depolarization to the peak of the action potential) (rat ventricular cells): 10.0 ± 1.9 ms | AP amplitude (rat ventricular cells; listed as dicentrine): 125.5±4.5 mV | APD50 (action potential duration measured at 50% repolarization from the peak amplitude) (rat ventricular cells; listed as dicentrine): 201.9 ± 28.7 ms | Tp (time to peak measured from the start of depolarization to the peak of the action potential) (rat ventricular cells; listed as dicentrine): 10.0 ± 1.9 ms | action potential duration (in words) (rat ventricular cells; stimulation frequency 0.1 Hz): prolonged the action potential | initial upstroke amplitude (in words) (rat ventricular cells; stimulation frequency 0.1 Hz): reduced the initial upstroke amplitude | time to peak (in words) (rat ventricular cells; stimulation frequency 0.1 Hz): increased the time to peak | calcium current (in words) (calcium current): less affected | contractile force of cholesterol-triglyceride-treated rat aorta (in words) (isolated thoracic aorta; cholesterol-triglyceride-rich diet): restored the contractile force of cholesterol-triglyceride-treated rat aorta back to normal values | maximal contractile force of isolated thoracic aorta (in words) (isolated thoracic aorta; high cholesterol and high fat diet three weeks, dicentrine 10 mg/kg oral twice a day in the last week, prazosin 5 mg/kg): restored to normal range | aortic contraction induced by U-46619, angiotensin II, high potassium or carbachol (in words) (aorta): did not affect | serum triglyceride level (in words) (serum triglyceride): decreased the serum triglyceride level | mean arterial pressure (in words) (normotensive (NT) rats): dose-related decreases in mean arterial pressure

COC(=O)[C@@H]1[C@H]2C[C@H]3c4[nH]c5ccccc5c4CCN3C[C@@H]2CC[C@@H]1O [Yohimbine, yohimbine, reference compound]
r (α1 -adrenoceptor; agonist phenylephrine): 0.99 | Kb (α1 -adrenoceptor; pA2, agonist phenylephrine): 631 nM
